Some test systems named below: ACHN; COLO 205; HCC 2998; HOP-62; HOP-92; K562; KM12; LOX IMVI; MDA-N; NCI-H522; OVCAR-3; OVCAR-5; PC-3; SF-539; SN12C; UACC-62.
Assay in all cases: growth of human tumour cells (NCI), 48 h

Structures are written as SMILES.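 Five concentrations, 48 hours, 96-well plates. GI50: concentration for 50% inhibition of growth.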 The source made the active and inactive calls. Cut-off read from the data, not from the text of the source: active = GI50 up to about 1.1 µM and inactive = higher. A value given as a limit tells only on which side of the number the result lay.

Take `Clc1ccccc1-c1nn2c(CCCCCCCCc3nnc4sc(-c5ccccc5Cl)nn34)nnc2s1`: the GI50 in the assay on ACHN, in the assay with COLO 205, in the assay with HCC 2998, in the assay on HOP-62, in the assay with HOP-92 and with K562 was > 100 µM (inactive) throughout. Also, the GI50 in the assay on KM12 is 87.3 µM (inactive); with LOX IMVI it was 63.1 µM (inactive); with MDA-N, > 100 µM (inactive); in the assay on NCI-H522, 77.3 µM (inactive); with OVCAR-3 it was > 100 µM (inactive); with OVCAR-5, > 100 µM (inactive). For the same molecule, the GI50 with PC-3, in the assay on SF-539, in the assay with SN12C and with UACC-62 was > 100 µM (inactive) in each case.
For the molecule `COC(=O)c1cc(C#N)[nH]c1-c1ccc(Br)s1`, the GI50 is 13.7 µM (inactive) in the assay with ACHN; 14.1 µM (inactive) in the assay on COLO 205; 17.9 µM (inactive) in the assay with HCC 2998; 8.39 µM (inactive) in the assay with HOP-62; 4.1 µM (inactive) with HOP-92; > 30.8 µM (inactive) in the assay on K562. In addition, the GI50 is 16.7 µM (inactive) with KM12; 9.14 µM (inactive) in the assay with LOX IMVI; 13.7 µM (inactive) in the assay on MDA-N; 7.03 µM (inactive) with NCI-H522; 3.58 µM (inactive) in the assay with OVCAR-3; 11.2 µM (inactive) in the assay with OVCAR-5. The GI50 was 1.75 µM (inactive) in the assay with PC-3, 12.8 µM (inactive) in the assay with SF-539, 13.1 µM (inactive) with SN12C and 11.6 µM (inactive) with UACC-62.
For the molecule `O=C1C2CC(Cl)C(SSC3CC4C(=O)N(SC(Cl)(Cl)C(Cl)Cl)C(=O)C4CC3Cl)CC2C(=O)N1SC(Cl)(Cl)C(Cl)Cl` (stereo not given), the GI50 with ACHN was 2.23 µM (inactive); with COLO 205, 1.78 µM (inactive); in the assay with HCC 2998, 4.43 µM (inactive); in the assay on HOP-62, 2.81 µM (inactive); in the assay on HOP-92, 1.61 µM (inactive); in the assay with K562, 0.979 µM (active). Moreover, the GI50 in the assay on KM12 is 5.04 µM (inactive); with LOX IMVI, 1.34 µM (inactive); with MDA-N it was 1.7 µM (inactive); in the assay with NCI-H522 it was 0.379 µM (active); with OVCAR-3 it was 2.05 µM (inactive); with OVCAR-5, 17 µM (inactive). Further, the GI50 in the assay on PC-3 is 1.29 µM (inactive); in the assay on SF-539, 2.32 µM (inactive); in the assay with SN12C it was 1.91 µM (inactive); in the assay with UACC-62, 1.69 µM (inactive).
Regarding `O=C1/C(=C/c2ccc(O)cc2)CCc2ccccc21`, the GI50 in the assay on ACHN is 21.1 µM (inactive); in the assay with COLO 205, 22 µM (inactive); with HCC 2998, 22 µM (inactive); in the assay with HOP-62, 22.9 µM (inactive); in the assay with HOP-92, 36.2 µM (inactive); with K562, 13.6 µM (inactive). The GI50 in the assay on KM12 is 17.2 µM (inactive); in the assay on LOX IMVI, 20 µM (inactive); in the assay on MDA-N it was 22.1 µM (inactive); with NCI-H522, 3.05 µM (inactive); with OVCAR-3, 23.3 µM (inactive); in the assay with OVCAR-5, 35.7 µM (inactive). Moreover, the GI50 in the assay with PC-3 is 16.8 µM (inactive); in the assay on SF-539, 18 µM (inactive); with SN12C, 18.3 µM (inactive); in the assay on UACC-62, 21.5 µM (inactive).
Consider `CCOc1cc(NC(C)=O)ccc1C(=O)NN1C(=O)CSC1c1ccc(O)c(OC)c1` (stereo not given), for which the GI50 was 51.4 µM (inactive) with ACHN; 33.1 µM (inactive) with COLO 205; 32.1 µM (inactive) in the assay on HCC 2998; > 100 µM (inactive) in the assay on HOP-62; 59.7 µM (inactive) with HOP-92; 40.7 µM (inactive) in the assay on K562. Moreover, the GI50 in the assay on KM12 was 42.9 µM (inactive); in the assay on LOX IMVI it was 87.3 µM (inactive); in the assay on MDA-N it was 54.7 µM (inactive); in the assay with NCI-H522, 37.8 µM (inactive); with OVCAR-3, 58.7 µM (inactive); in the assay on OVCAR-5, > 100 µM (inactive). The GI50 in the assay with PC-3 is 44 µM (inactive); in the assay on SF-539, > 100 µM (inactive); with SN12C it was > 100 µM (inactive); in the assay on UACC-62 it was 50.4 µM (inactive).
